Where a SMILES comes first, the peptide text is derived from it. [ ]: non-standard residue; d: D form. The star is where a group is joined. Orn(α-tetramethylguanidino) = CN(C)C(=N[C@@H](CCCN)C(=O)*)N(C)C; Pro(trans-4-F) = O=C(O)[C@@H]1C[C@@H](F)CN1; Pro(cis-4-F) = O=C(O)[C@@H]1C[C@H](F)CN1
What was measured:
[1] = tested on: in vitro expression of sfGFP in the presence of RF1; experiment: In vitro transcription-translation (iTT) assay of sfGFP in the presence of RF1; type: biochemical; conditions: peptide 5 µmol/L, RF1, 37 °C, 2 h, fluorescence, normalized to absence of PrAMPs, n = 3
Experimental: The sfGFP expression analysis relied on the NEB PureExpress Delta RF123 Kit (New England Biolabs, Frankfurt, Germany). The DNA template encoding sfGFP with a UAG stop codon was amplified from the pY71sfGFP vector by PCR using the primers sfGFP fwd ([…]) and sfGFP rev ([…]). The release factor RF1 of the kit was diluted 50-fold (v/v) in 1× Pure System Buffer (PSB, 1 mol/L magnesium acetate, 0.5 mol/L K3PO4 (pH 7.3), 1 mol/L potassium glutamate, 1 mol/L NH4Cl, 0.5 mol/L CaCl2, 1 mol/L spermidine, 0.1 mol/L putrescine, 0.1 mol/L DTT). sfGFP expression was performed in a freshly prepared mixture of kit solution A (2 µL), kit solution B (1.5 µL), 50-fold diluted RF1 (0.5 µL), sfGFP template (0.1325 pmol, 35 ng) or water as control (0.25 µL), PSB (0.25 µL), and a PrAMP (50 or 0 µmol/L) dissolved in water (0.5 µL). The reaction mixture was transferred to a black 384-well plate (flat bottom, PS, 784900, Greiner Bio-One GmbH), covered with a lid, and incubated (37 °C, 2 h) in a microplate reader (Gemini EM, Molecular Devices, San Jose, CA, USA). Fluorescence was recorded every 10 min (λex = 485 nm, λem = 535 nm).

[2] = tested on: 50S subunit assembly / 70S ribosome in E. coli RN31; experiment: Ribosome profile analysis (RPA), sucrose gradient of E. coli RN31 lysate; type: cell-based, Escherichia coli; conditions: 90 min; for RPA [pre-50S formation]: E. coli RN31, 33% TSB, peptide 8 µg/mL, 5–25% sucrose gradient, n = 2 (Api137 n = 7)
Experimental: E. coli RN31 was grown in 33% TSB (37 °C, 200 rpm) from a starting OD600 of 0.05 to an OD600 of 0.2, measured on a NanoPhotometer® (NP80; Implen; Westlake Village, CA, USA), and divided into subcultures that were inoculated with a peptide ([…]) before being cultured for 90 min (37 °C, 200 rpm). The following steps were performed on ice. Cells were harvested by centrifugation (4000× g, 4 °C, 25 min), washed with TICO buffer (20 mmol/L Hepes-KOH, pH 7.6, 6 mmol/L MgAc2, 30 mmol/L KAc), centrifuged (4000× g, 25 min, 4 °C), and stored at −80 °C. The cell pellet was suspended in TICO buffer (500 µL) and mixed with silica beads (zirconium glass pellets, 100 µm diameter; Carl Roth; Karlsruhe, Germany) to lyse the cells on a FastPrep-24^TM 5G (MP Biomedicals, Solon, OH, USA) using three disruption cycles (30 s, 6.0 m/s) interrupted by 1 min of incubation on ice after each cycle. Cell debris was removed by centrifugation (5000× g, 4 °C, 5 min), the supernatant was transferred to a new reaction tube, centrifuged (20,000× g, 4 °C, 20 min), the absorbance was recorded at 260 nm on a NanoPhotometer® NP80, and the sample was stored at −80 °C.
A 5% (w/v) sucrose solution (6.5 mL) in TICO buffer containing 2-mercaptoethanol (4 mmol/L) was poured into an open-top centrifuge tube (13.2 mL, 14 × 89 mm, Beckman Coulter) and bottomed with a 25% (w/v) sucrose solution (6.5 mL) in TICO buffer containing 2-mercaptoethanol (4 mmol/L) using a cannula. The tube was sealed with parafilm and placed horizontally at 4 °C for 3 h and vertically at 4 °C for 30 min. A portion of the upper layer (550 µL) was replaced by lysate (500 µL, A260 = 30) and centrifuged using a swing-out rotor (SW 41 Ti, 52,500× g, 4 °C, 19 h) without a brake. The contents were transferred from bottom-up to obtain equal volumes in all wells of a black 96-well plate with a flat bottom (96 Well PP black Greiner Bio-One GmbH, Frickenhausen, Germany) using the Äkta Purifier 10 system, and absorbance was recorded at a wavelength of 254 nm. Fluorescence was measured in the plate using the PARADIGM at excitation (λex) and emission (λem) wavelengths of 485 nm and 535 nm for eGFP and 585 nm and 635 nm, respectively, for mCherry and normalized to the 70S ribosome peak (set to 100%).

[3] = tested on: E. coli RN31; experiment: Growth inhibition of E. coli RN31 during 90 min exponential growth phase; type: cell-based, Escherichia coli; conditions: E. coli RN31, 33% TSB, peptide 8 µg/mL, 90 min, OD600; two biological replicates (n = 2)
Experimental: The following steps were performed on ice. Cells were harvested by centrifugation (4000× g, 4 °C, 25 min), washed with TICO buffer (20 mmol/L Hepes-KOH, pH 7.6, 6 mmol/L MgAc2, 30 mmol/L KAc), centrifuged (4000× g, 25 min, 4 °C), and stored at −80 °C. The cell pellet was suspended in TICO buffer (500 µL) and mixed with silica beads (zirconium glass pellets, 100 µm diameter; Carl Roth; Karlsruhe, Germany) to lyse the cells on a FastPrep-24^TM 5G (MP Biomedicals, Solon, OH, USA) using three disruption cycles (30 s, 6.0 m/s) interrupted by 1 min of incubation on ice after each cycle. Cell debris was removed by centrifugation (5000× g, 4 °C, 5 min), the supernatant was transferred to a new reaction tube, centrifuged (20,000× g, 4 °C, 20 min), the absorbance was recorded at 260 nm on a NanoPhotometer® NP80, and the sample was stored at −80 °C. […]

Question: What does the source list for CC[C@H](C)[C@H](NC(=O)[C@H](Cc1ccc(O)cc1)NC(=O)[C@@H](NC(=O)[C@@H]1C[C@@H](F)CN1C(=O)[C@H](CCCNC(=N)N)NC(=O)[C@H](CC(N)=O)NC(=O)[C@H](CC(N)=O)NC(=O)[C@H](CCCN)N=C(N(C)C)N(C)C)C(C)C)C(=O)N1CCC[C@H]1C(=O)N[C@@H](CCCNC(=N)N)C(=O)N1CCC[C@H]1C(=O)N[C@@H](CCCNC(=N)N)C(=O)N1CCC[C@H]1C(=O)N1CCC[C@H]1C(=O)N[C@@H](Cc1c[nH]cn1)C(=O)N1CCC[C@H]1C(=O)N[C@@H](CCCNC(=N)N)C(=O)N[C@@H](CC(C)C)C(=O)O [Api840] ({Orn(α-tetramethylguanidino)}-NNR[Pro(trans-4-F)]VYIPRPRPPHPRL-OH)?
Answer: Residual iTT (sfGFP expression relative to no PrAMP) [1]: 35 ± 0.1%; RPA [pre-50S formation] [2]: yes

Question: With CC[C@H](C)[C@H](NC(=O)[C@H](Cc1ccc(O)cc1)NC(=O)[C@@H](NC(=O)[C@@H]1C[C@H](F)CN1C(=O)[C@H](CCCNC(=N)N)NC(=O)[C@H](CC(N)=O)NC(=O)[C@H](CC(N)=O)NC(=O)[C@H](CCCN)N=C(N(C)C)N(C)C)C(C)C)C(=O)N1CCC[C@H]1C(=O)N[C@@H](CCCNC(=N)N)C(=O)N1CCC[C@H]1C(=O)N[C@@H](CCCNC(=N)N)C(=O)N1CCC[C@H]1C(=O)N1CCC[C@H]1C(=O)N[C@@H](Cc1c[nH]cn1)C(=O)N1CCC[C@H]1C(=O)N[C@@H](CCCNC(=N)N)C(=O)N[C@@H](CC(C)C)C(=O)O [Api839] ({Orn(α-tetramethylguanidino)}-NNR[Pro(cis-4-F)]VYIPRPRPPHPRL-OH) as the compound, how does the “Residual iTT (sfGFP expression relative to no PrAMP)” value [1] read?
Answer: The value was 23 ± 0.2%.

Question: And the “RPA [pre-50S formation]” value [2]?
Answer: The value was “yes”.

Question: CC[C@H](C)[C@H](NC(=O)[C@H](Cc1ccc(O)cc1)NC(=O)[C@@H](NC(=O)[C@@H]1CCCN1C(=O)[C@H](CCCNC(=N)N)NC(=O)[C@H](CC(N)=O)NC(=O)[C@H](CC(N)=O)NC(=O)[C@H](CCCN)N=C(N(C)C)N(C)C)C(C)C)C(=O)N1C[C@H](F)C[C@H]1C(=O)N[C@@H](CCCNC(=N)N)C(=O)N1CCC[C@H]1C(=O)N[C@@H](CCCNC(=N)N)C(=O)N1CCC[C@H]1C(=O)N1CCC[C@H]1C(=O)N[C@@H](Cc1c[nH]cn1)C(=O)N1CCC[C@H]1C(=O)N[C@@H](CCCNC(=N)N)C(=O)N[C@@H](CC(C)C)C(=O)O [Api846] ({Orn(α-tetramethylguanidino)}-NNRPVYI[Pro(trans-4-F)]RPRPPHPRL-OH) was tested. Which “reduction of bacterial growth vs untreated control” value [3] did it give?
Answer: The value was 34%.

Question: What about the “Residual iTT (sfGFP expression relative to no PrAMP)” value [1] of the same compound?
Answer: The value was 33 ± 3.5%.

Question: What about the “RPA [pre-50S formation]” value [2] of the same compound?
Answer: The value was “no”.

Question: And the “70S peak (area) relative to untreated control” value ([2]; E. coli RN31, peptide 8 µg/mL, sucrose gradient profile)?
Answer: Its value is ~ 45%.

Question: Which “reduction of bacterial growth vs untreated control” value [3] does the source give for CC[C@H](C)[C@H](NC(=O)[C@H](Cc1ccc(O)cc1)NC(=O)[C@@H](NC(=O)[C@@H]1CCCN1C(=O)[C@H](CCCNC(=N)N)NC(=O)[C@H](CC(N)=O)NC(=O)[C@H](CC(N)=O)NC(=O)[C@H](CCCN)N=C(N(C)C)N(C)C)C(C)C)C(=O)N1CCC[C@H]1C(=O)N[C@@H](CCCNC(=N)N)C(=O)N1C[C@@H](F)C[C@H]1C(=O)N[C@@H](CCCNC(=N)N)C(=O)N1CCC[C@H]1C(=O)N1CCC[C@H]1C(=O)N[C@@H](Cc1c[nH]cn1)C(=O)N1CCC[C@H]1C(=O)N[C@@H](CCCNC(=N)N)C(=O)N[C@@H](CC(C)C)C(=O)O [Api841] ({Orn(α-tetramethylguanidino)}-NNRPVYIPR[Pro(cis-4-F)]RPPHPRL-OH) here?
Answer: Its value is 65%.

Question: And the “Residual iTT (sfGFP expression relative to no PrAMP)” value [1]?
Answer: Its value is 32 ± 0.9%.

Question: What about the “RPA [pre-50S formation]” value [2] of the same compound?
Answer: Its value is “yes”.

Question: How did the “Residual iTT (sfGFP expression relative to no PrAMP)” value ([1]; listed as 4R-Fpr14) turn out when CC[C@H](C)[C@H](NC(=O)[C@H](Cc1ccc(O)cc1)NC(=O)[C@@H](NC(=O)[C@@H]1CCCN1C(=O)[C@H](CCCNC(=N)N)NC(=O)[C@H](CC(N)=O)NC(=O)[C@H](CC(N)=O)NC(=O)[C@H](CCCN)N=C(N(C)C)N(C)C)C(C)C)C(=O)N1CCC[C@H]1C(=O)N[C@@H](CCCNC(=N)N)C(=O)N1CCC[C@H]1C(=O)N[C@@H](CCCNC(=N)N)C(=O)N1CCC[C@H]1C(=O)N1C[C@H](F)C[C@H]1C(=O)N[C@@H](Cc1c[nH]cn1)C(=O)N1CCC[C@H]1C(=O)N[C@@H](CCCNC(=N)N)C(=O)N[C@@H](CC(C)C)C(=O)O [Api848] ({Orn(α-tetramethylguanidino)}-NNRPVYIPRPRP[Pro(trans-4-F)]HPRL-OH) was run?
Answer: Its value is 64%.

Question: And the “Residual iTT (sfGFP expression relative to no PrAMP)” value ([1]; listed as Pro14 4R-Fpr (trans))?
Answer: The value was 64 ± 4.6%.

Question: What about the “RPA [pre-50S formation]” value [2] of the same compound?
Answer: The value was “no”.

Question: Which results are given for CC[C@H](C)[C@H](NC(=O)[C@H](Cc1ccc(O)cc1)NC(=O)[C@@H](NC(=O)[C@@H]1CCCN1C(=O)[C@H](CCCNC(=N)N)NC(=O)[C@H](CC(N)=O)NC(=O)[C@H](CC(N)=O)NC(=O)[C@H](CCCN)N=C(N(C)C)N(C)C)C(C)C)C(=O)N1CCC[C@H]1C(=O)N[C@@H](CCCNC(=N)N)C(=O)N1CCC[C@H]1C(=O)N[C@@H](CCCNC(=N)N)C(=O)N1CCC[C@H]1C(=O)N1C[C@@H](F)C[C@H]1C(=O)N[C@@H](Cc1c[nH]cn1)C(=O)N1CCC[C@H]1C(=O)N[C@@H](CCCNC(=N)N)C(=O)N[C@@H](CC(C)C)C(=O)O [Api847] ({Orn(α-tetramethylguanidino)}-NNRPVYIPRPRP[Pro(cis-4-F)]HPRL-OH)?
Answer: Residual iTT (sfGFP expression relative to no PrAMP) ([1]; listed as 4S-Fpr14): 21%; Residual iTT (sfGFP expression relative to no PrAMP) ([1]; listed as Pro14 4S-Fpr (cis)): 21 ± 0.2%; RPA [pre-50S formation] [2]: reduced; ribosomal profile, pre-50S peak ([2]; E. coli RN31, adjusted peptide concentration 16 µg/mL): a pre-50S peak was observed
